Laboratory results: patent US20060287319A1, “Anti-viral compositions comprising heterocyclic substituted phenyl furans and related compounds” (priority 2005, published 2006)
Like-named read-outs stand apart in the source and are kept apart here.

Tests used:
[1] = system: HIV-1 IIIB; settings: for EC50: read-out: EC50 (μM) (M ± SD) for inhibition of p24, HIV-1 IIIB, MT-2 cells; for SI (CC50/EC50): selectivity index
Protocol: Assessment of anti-HIV-1 infectivity. The inhibitory activity of compounds on infection by laboratory-adapted HIV-1 strains was determined as previously described (34). […] For the time-of-addition assay, compounds were added at various time post-infection. Then the culture supernatants were removed and fresh media were added. On the fourth day post-infection, 100 μl of culture supernatants were collected from each well, mixed with equal volumes of 5% Triton X-100 and assayed for p24 antigen, which was quantitated by ELISA (23). Briefly, the wells of polystyrene plates (Immulon 1B, Dynex Technology, Chantilly, Va.) were coated with HIV immunoglobulin (HIVIG), which was prepared from plasma of HIV-seropositive donors with high neutralizing titers against HIV-1IIIB as previously described (36) in 0.085 M carbonate-bicarbonate buffer (pH 9.6) at 4° C. overnight, followed by washes with PBS-T buffer (0.01M PBS containing 0.05% Tween-20) and blocking with PBS containing 1% dry fat-free milk (Bio-Rad Inc., Hercules, Calif.). Virus lysates were added to the wells and incubated at 37° C. for 1 h. […] Reactions were terminated by addition of 1N H2SO4. […] Recombinant protein p24 (US Biological, Swampscott, Mass.) was included for establishing standard dose response curve.

[2] = system: HIV-1 IIIB; test: HIV-1-mediated cytopathic effect (CPE); type: cell-based; settings: read-out: EC50 (μM) (M ± SD) for inhibition of CPE
Excerpt: We thus purchased these compounds and tested their inhibitory activity on: 1) HIV-1 replication (p24 production); 2) HIV-1-mediated cytopathic effect (CPE); and 3) HIV-1 Env-induced cell-cell fusion; and their cytotoxicity to MT-2 cells.

[3] = system: MT-2 cells
Protocol: Detection of in vitro cytotoxicity. The in vitro cytotoxicity of compounds for MT-2 cells was measured by a colorimetric method using XTT tetrazolium dye as previously described (21). Briefly, 100 μl of a compound at a graded concentration was added to equal volume of cells (5×10^5/ml) in a well of 96-well plates. After incubation at 37° C. for 4 days, XTT (1 mg/ml; […]; PolySciences, Inc., Warrington, Pa.) was added. Four hours later, the soluble intracellular formazan was quantitated colorimetrically at 450 nm with a reference at 570 nm.

[4] = system: HIV-1IIIB infected H9 cells (H9/HIV-1IIIB) and MT-2 cells; test: HIV-1 mediated cell-cell fusion (dye transfer assay); type: cell-based; settings: H9/HIV-1IIIB with MT-2 cells; read-out: EC50 (μM) (M ± SD) for inhibition of Cell fusion
Protocol: Inhibition of cell-cell fusion. A dye transfer assay was used for detection of HIV-1 mediated cell fusion as previously described (11,25,26). H9/HIV-1IIIB cells were labeled with a fluorescent reagent, Calcein-AM (Molecular Probes, Inc., Eugene, Oreg.) and then incubated with MT-2 cells (ratio=1:5) in 96-well plates at 37° C. for 2 hrs in the presence or absence of compounds tested. The fused and unfused Cacein-labeled HIV-1-infected cells were counted under an inverted fluorescence microscope (Zeiss, Germany) with an eyepiece micrometer disc. The percentage of inhibition of cell fusion and the IC50 values were calculated as previously described (11).

[5] = read-out: Cytotoxicity CC50 (μM) (M ± SD), MT-2 cells

Compound | EC50 [1] | SI (CC50/EC50) [1] | EC50 [2] | CC50 [3, 5] | EC50 [4] | CC50 [3]
O=C(O)c1cccc(-c2ccc(/C=C3\SC(=S)N(c4cccc5ccccc45)C3=O)o2)c1 [NB221] | 0.46 ± 0.009 µM | 75.04 | 1.58 ± 0.241 µM | 34.5 ± 0.46 µM | 7.11 ± 0.24 µM | –
O=C(O)c1cc(-c2ccc(/C=C3\SC(=S)N(c4ccc([N+](=O)[O-])cc4)C3=O)o2)ccc1Cl [NB222] | > 100 µM | – | > 100 µM | > 328 µM | > 100 µM | –
COC(=O)c1ccccc1N1C(=O)/C(=C/c2ccc(-c3ccc(Cl)c(C(=O)O)c3)o2)SC1=S [NB226] | 2.12 ± 0.38 µM | – | 3.46 ± 0.2 µM | – | > 100 µM | > 320 µM
Cc1c(C(=O)O)cccc1-c1ccc(/C=C2\SC(=S)N(CC(=O)O)C2=O)o1 [NB228] | > 100 µM | – | > 100 µM | – | > 100 µM | > 397 µM
O=C(O)c1cccc(-c2ccc(/C=C3\SC(=S)N(c4ccc(F)cc4)C3=O)o2)c1 [NB229] | > 100 µM | – | > 100 µM | – | > 100 µM | > 376 µM
Cc1ccc(N2C(=O)/C(=C/c3ccc(-c4cccc(C(=O)O)c4)o3)SC2=S)cc1 [NB230] | 0.332 ± 0.095 µM | 428.93 | 2.16 ± 0.284 µM | 142 µM | 3.08 ± 0.047 µM | –
CCC(C)N1C(=O)S/C(=C\c2ccc(-c3cc(C(=O)O)ccc3Cl)o2)C1=O (centres unmarked) [NB232] | > 100 µM | – | > 100 µM | – | > 100 µM | > 394 µM
COC(=O)CN1C(=O)S/C(=C\c2ccc(-c3cc(C(=O)O)ccc3Cl)o2)C1=O [NB234] | > 100 µM | – | > 100 µM | > 379 µM | > 100 µM | –
O=C(O)CN1C(=O)/C(=C/c2ccc(-c3cc(C(=O)O)ccc3Cl)o2)SC1=S [NB235] | > 100 µM | – | > 100 µM | – | > 100 µM | > 378 µM
CCN1C(=O)S/C(=C\c2ccc(-c3cc(C(=O)O)ccc3Cl)o2)C1=O [NB236] | > 100 µM | – | > 100 µM | – | > 100 µM | 113 ± 8.64 µM
COC(=O)C(C)N1C(=O)S/C(=C\c2ccc(-c3cc(C(=O)O)ccc3C)o2)C1=O (centres unmarked) [NB237] | > 100 µM | – | > 100 µM | – | > 100 µM | 67.7 ± 15 µM
O=C1/C(=C/c2ccc(-c3cccc(Cl)c3)o2)SC(=S)N1c1ccccc1 [NB239] | > 100 µM | – | > 100 µM | > 402 µM | > 100 µM | –
